According to patent US4824853A, “α,α-diaryl-4-aryl-4-hydroxy-1-piperidinebutanamide, N-oxides and method of treating diarrhea” (Janssen Pharmaceutica N.V., priority 1986, dated 1989):

Experiments:
[1] = tested on: tail withdrawal response; test: Tail Withdrawal Test in Rats; assay type: in vivo, Female Wistar rats; conditions: intravenous; for ED50: Rattus norvegicus, 55° C. water, response suppressed >10 seconds in 50% of animals, indicator of central effects
Procedure: Female Wistar rats were fasted overnight. Each animal was treated intravenously with the desired dose of the compound to be tested. The thus treated rats were put into individual restraining cages. After the administration of the test compound, the lower 5 cm portion of the tail was immersed into a cup filled with water at a constant temperature of 55° C. The typical tail withdrawal response was evaluated during a 10 seconds period after the immersion. ED50 values in mg/kg body weight were determined at that dose of the test compound capable of suppressing in 50% of the tested animals the typical tail withdrawal response during a time period exceeding 10 seconds.

[2] = tested on: diarrhea; test: Determination of the antidiarrheal specificity (Tail Withdrawal ED50 / Castor Oil ED50); assay type: in vivo, Female Wistar rats; conditions: ratio ED50 Tail Withdrawal Test / ED50 Castor Oil Test
Procedure: (§1) The safety margin for the antidiarrheal action was determined as the ratio of the LD50 value to the ED50 value obtained in the Castor Oil Test. The antidiarrheal specificity was determined as the ratio of the ED50 value obtained in the Tail Withdrawal Test to the ED50 value obtained in the Castor Oil Test.

[3] = tested on: diarrhea; test: Castor Oil Test in Rats; assay type: in vivo, Female Wistar rats; conditions: Rattus norvegicus; intravenous, 1 h before 1 ml castor oil orally; diarrhea absent in 50% of animals 2 hours after castor oil
Procedure: Female Wistar rats were fasted overnight. Each animal was treated intravenously with the desired dose of the compound to be tested. One hour thereafter, the animal received 1 ml of castor oil orally. Each animal was kept in an individual cage and 2 hours after the castor oil treatment, the presence or absence of diarrhea was noted. The ED50 value was determined as that dose in mg/kg body weight, at which no diarrhea was present in 50% of the tested animals. Said ED50 -value for a compound of the present invention and for 4-(4-chlorophenyl)-4-hydroxy-N,N-dimethyl-α,α-diphenyl-1-piperidinebutanamide, which compound is generically designated as loperamide and which is described in U.S. Pat. No. 3,714,159, can be found in table I.

[4] = Determination of toxicity; parameters: species or system Female Wistar rats; conditions: rat, in vivo; dose lethal in 50% of tested animals; route not stated
Procedure: Female Wistar rats were treated with the compound to be tested at various dose levels. LD50 values were determined as that dose in mg/kg body weight being lethal in 50% of the tested animals. Said LD50 values obtained for a compound of the present invention and for 4-(4-chlorophenyl)-4-hydroxy-N,N-dimethyl-α,α-diphenyl-1-piperidinebutanamide (i.e. loperamide) are also listed in table I. From these value it can be concluded that the compounds of the present invention show a decreased toxicity.

[5] = Determination of the safety margin for the antidiarrheal action (LD50 / Castor Oil ED50); parameters: species or system Female Wistar rats; conditions: rat, in vivo; ratio LD50 / ED50 Castor Oil Test
Procedure: as §1

SMILES | ED50 [1] | typical tail withdrawal reflex antagonism (in words) [1] | Antidiarrheal specificity [2] | ED50 [3] | LD50 [4] | selectivity ratio [5]
CN(C)C(=O)C(CC[N+]1([O-])CCC(O)(c2ccc(Cl)cc2)CC1)(c1ccccc1)c1ccccc1 (stereo not drawn) [Compound 1, trans-4-(4-chlorophenyl)-4-hydroxy-N,N-dimethyl-α,α-diphenyl-1-piperidinebutanamide, N-oxide] | > 20 mg/kg | does not show such activity | > 95 | 0.21 mg/kg | 28.3 mg/kg | 135
CN(C)C(=O)C(CCN1CCC(O)(c2ccc(Cl)cc2)CC1)(c1ccccc1)c1ccccc1 [loperamide, 4-(4-chlorophenyl)-4-hydroxy-N,N-dimethyl-α,α-diphenyl-1-piperidinebutanamide] | 2.83 mg/kg | antagonizes the typical tail withdrawal reflex | 29.8 | 0.095 mg/kg | 5.92 mg/kg | 62.3
